Earlier results as cited in patent US9950112B2 (priority 2010, dated 2018).

Experiments:
[1] = morphine during early resuscitation following serious injuries; reduced from 76%
[2] = propofol concentration, human surgical patients, general anesthesia

In the case of `CN1CC[C@]23c4c5ccc(O)c4O[C@H]2[C@@H](O)C=C[C@H]3[C@H]1C5` [morphine], the “incidence of post-traumatic stress disorder (PTSD)” value [1] is listed as 61%.

In the case of `CC(C)c1cccc(C(C)C)c1O` [propofol], the EC50 for awakening [2] is listed as 1.07 ± 0.13 µg/mL and the EC50 for orientation [2] is listed as 0.95 ± 0.19 µg/mL.
